From US20020012738A1, “Low calorie fat compositions” (priority 2000, published 2002)

What was measured:
[1] = molecular target: T1, porcine lipase (Sus scrofa, UniProt P00591); test: Hydrolysis by pancreatic lipase, aqueous emulsion assay; format: in vitro ADME; details: 30° C., Bis-Tris propane buffer pH 7.8, HMPC, sodium cholate, 300 mg fat, unit assumed
T1 sequence (P00591 1-450): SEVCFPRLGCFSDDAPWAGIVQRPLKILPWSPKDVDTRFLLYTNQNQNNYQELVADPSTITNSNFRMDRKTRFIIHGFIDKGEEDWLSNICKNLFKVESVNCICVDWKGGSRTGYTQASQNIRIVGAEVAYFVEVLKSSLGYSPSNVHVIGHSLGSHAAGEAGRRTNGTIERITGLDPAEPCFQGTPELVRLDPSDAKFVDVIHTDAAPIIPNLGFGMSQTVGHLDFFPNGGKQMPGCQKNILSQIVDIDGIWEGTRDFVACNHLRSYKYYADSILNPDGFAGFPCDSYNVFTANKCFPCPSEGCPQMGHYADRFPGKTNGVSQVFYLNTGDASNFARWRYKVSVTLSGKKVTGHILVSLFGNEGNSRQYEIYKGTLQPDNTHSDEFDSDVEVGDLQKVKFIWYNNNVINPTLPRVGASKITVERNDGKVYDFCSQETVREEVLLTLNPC
Procedure: The digestibility of the wax esters derived from long chain and medium chain combinations (III and IV) of the present invention were done to compare with triolein and wax esters derived from long chain acids and long chain alcohols. The in-vitro assays were done using two emulsion systems as in the following procedure. A mixture of 300 mg of the fat/fat substitute, 4 ml of Bis-Tris propane buffer (10 mM, pH 7.8), 5 ml of hydroxyproylmethylcellulose (HMPC, […]), 0.5 ml of sodium cholate (0.1 M) were sonicated to disperse the fats and incubated at 30° C. Porcine lipase (0.5 ml, 20 mg/ml) was added. The analysis of the reaction was carried out as in the above organic solution assay.

[2] = molecular target: T1, porcine lipase; test: Hydrolysis by pancreatic lipase, organic solution assay; format: in vitro ADME; details: 30° C., tamyl alcohol, Bis-Tris propane buffer pH 7.8, 300 mg fat, unit assumed
Procedure: The digestibility of the wax esters derived from long chain and medium chain combinations (III and IV) of the present invention were done to compare with triolein and wax esters derived from long chain acids and long chain alcohols. The in-vitro assays were done using two emulsion systems as in the following procedure. Each digest was carried out with 300 mg of the fat/fat substitute, 9 ml of the ^tamyl alcohol, 0.5 ml of Bis-Tris propane buffer (10 mM, pH 7.8) and 0.5 ml of porcine lipase (20 mg/mi). The reaction was incubated at 30° C. and the reaction stopped by adding 1 ml aliquots to 3 ml of isopropanol/heptane/sulfuric acid (40/10/1). The product was extracted with heptane and analyzed by GC and GC-MS at 360° C.

| Structure (SMILES) | Hydrolysis by pancreatic lipase, Aqueous Emulsion Assay 24 hr [1] | Hydrolysis by pancreatic lipase, Organic Solution Assay 24 hr [2] |
| --- | --- | --- |
| CCCCCCCCCCCCCCCCCCCCOC(=O)CCCCC [Arachidyl caproate] | 4% | 2.2% |
| CCCCCCCCCCCCCCCCCCCCOC(=O)CCCCCCC [Arachidyl caprylate] | 14.7% | 7.6% |
| CCCCCCCCCCCCCCCCCCCC(=O)OCCCCCC [Hexyl arachidate] | 11.7% | 5.4% |
| CCCCCCCC/C=C\CCCCCCCC(=O)OCC(COC(=O)CCCCCCC/C=C\CCCCCCCC)OC(=O)CCCCCCC/C=C\CCCCCCCC [Triolein, reference compound] | 93.3% | 69.2% |
